Measured values reported in ChEMBL document CHEMBL1155191, “Simple dihydrosphyngosine analogues with potent activity against MDR-Mycobacterium tuberculosis” (2009).
≈ marks a conversion by molar mass, not a printed value.

Columns and labels:
Format in all cases: functional
[1] = test system: Mycobacterium tuberculosis; test: Antimycobacterial activity against Mycobacterium tuberculosis H37Rv ATCC 27294 after 5 to 7 days by microplate alamar blue assay
[2] = test system: Mycobacterium tuberculosis; test: Ratio of ethambutol MIC to compound MIC for Mycobacterium tuberculosis H37Rv ATCC 27294
[3] = test system: Mycobacterium tuberculosis; test: Antimycobacterial activity against Mycobacterium tuberculosis CIB99 after 5 to 7 days by microplate alamar blue assay
[4] = test system: Mycobacterium tuberculosis; test: Ratio of ethambutol MIC to compound MIC for Mycobacterium tuberculosis CIB99

SMILES | MIC [1] [µM] | Ratio [2] | MIC [3] [µM] | Ratio [4]
CCCCCCCCCCCCCCC(CN(CC)CC)NC(=O)OC(C)(C)C (stereo not given) | 15.2 (≈ 6.27 µg/mL) | 0.65 | 15.2 (≈ 6.27 µg/mL) | >10
CCCCCCCCCCCCCCC(N)CN (stereo not given) | 12.6 (≈ 3.23 µg/mL) | 0.8 | 12.6 (≈ 3.23 µg/mL) | >12
CO[C@H]1/C=C/O[C@@]2(C)Oc3c(C)c(O)c4c(O)c(c(/C=N/N5CCN(C)CC5)c(O)c4c3C2=O)NC(=O)/C(C)=C\C=C\[C@H](C)[C@H](O)[C@@H](C)[C@@H](O)[C@@H](C)[C@H](OC(C)=O)[C@@H]1C [RIFAMPIN] | 0.152 (≈ 0.125 µg/mL) | 650 | > 2.43 | 65
CCCCCCCCCCCCCCC(CNCC)NC(=O)OC(C)(C)C (stereo not given) | 32 (≈ 12.3 µg/mL) | 0.3 | 32 (≈ 12.3 µg/mL) | >4.9
CCCCCCCCCCCCCCC(COCc1ccccc1)NCC (stereo not given) | 16.6 (≈ 6.24 µg/mL) | 0.6 | 16.6 (≈ 6.24 µg/mL) | >9.5
CCCCCCCCCCCCCCC(N)COCc1ccccc1 (stereo not given) | 3.6 (≈ 1.25 µg/mL) | 2.8 | 3.6 (≈ 1.25 µg/mL) | >43
CCCCCCCCCCCCCCC(N)CN(CC)CC (stereo not given) | 4 (≈ 1.25 µg/mL) | 2.5 | 8 (≈ 2.5 µg/mL) | >19
CCCCCCCCCCCCCCC(CO)NC(=O)OC(C)(C)C (stereo not given) | 84 (≈ 30 µg/mL) | 0.12 | 84 (≈ 30 µg/mL) | >5
CC[C@@H](CO)NCCN[C@@H](CC)CO [ETHAMBUTOL] | 9.9 (≈ 2.02 µg/mL) | 1 | > 158 | 1
CCCCCCCCCCCCCCC(COCc1ccccc1)NC(=O)CCC(=O)O (stereo not given) | 140 (≈ 62.7 µg/mL) | 0.07 | 140 (≈ 62.7 µg/mL) | >1.1
CCCCCCCCCCCCCCC(CN)NC(=O)OC(C)(C)C (stereo not given) | 30 (≈ 10.7 µg/mL) | 0.3 | 30 (≈ 10.7 µg/mL) | >5.2
CCCCCCCCCCCCCCC(O)CNCc1ccccc1 (stereo not given) | 36 (≈ 12.5 µg/mL) | 0.28 | 72 (≈ 25 µg/mL) | >2.2
CCCCCCCCCCCCCCC(CNC(=O)CCCC(=O)O)NC(=O)OC(C)(C)C (stereo not given) | 133 (≈ 62.6 µg/mL) | 0.07 | 133 (≈ 62.6 µg/mL) | >1.2
CCCCCCCCCCCCCCC(O)CNC1CCCCC1 (stereo not given) | 33 (≈ 11.2 µg/mL) | 0.3 | 11 (≈ 3.74 µg/mL) | >14
CCCCCCCCCCCCCCC(COCc1ccccc1)NC(=O)CCCC(=O)O (stereo not given) | 68 (≈ 31.4 µg/mL) | 0.14 | 68 (≈ 31.4 µg/mL) | >2.3
CCCCCCCCCCCCCCC(CN(CC(=O)OCC)CC(=O)OCC)NC(=O)OC(C)(C)C (stereo not given) | 59 (≈ 31.2 µg/mL) | 0.17 | 59 (≈ 31.2 µg/mL) | >2.7
CCCCCCCCCCCCCCC(COCc1ccccc1)NCC(=O)OCC (stereo not given) | 72 (≈ 31.2 µg/mL) | 0.13 | 72 (≈ 31.2 µg/mL) | >2.2
CCCCCCCCCCCCCCC(N)CO (stereo not given) | 24 (≈ 6.18 µg/mL) | 0.41 | 49 (≈ 12.6 µg/mL) | >16
CCCCCCCCCCCCCCC(COCc1ccccc1)N(CC)CC (stereo not given) | 3.1 (≈ 1.25 µg/mL) | 3.2 | 3.1 (≈ 1.25 µg/mL) | >50
CCCCCCCCCCCCCCC(CO)N(CC)CC (stereo not given) | 20 (≈ 6.27 µg/mL) | 0.5 | 40 (≈ 12.5 µg/mL) | >3.9
